{"source": "patent US5952323A", "about": "“Carbapenem antibiotic” (Merck & Co., Inc., priority 1998, dated 1999)", "key": {"dehydropeptidase (DHP)": {"test_system": "dehydropeptidase (DHP)", "test": "Susceptibility to attack by dehydropeptidase (DHP)", "assay_type": "in vitro ADME", "settings": "compared with naturally occurring carbapenems", "source_text": "The compound of formula I is of the broad class known as carbapenems. Naturally occurring carbapenems are susceptible to attack by a renal enzyme known as dehydropeptidase (DHP). This attack or degradation may reduce the efficacy of the carbapenem antibacterial agent. […] However, use of a DHP inhibitor is optional and is contemplated as being included in the present invention. Inhibitors of DHP and heir use with carbapenem antibacterial agents are disclosed in European Patent Applications No. 79102616.4, filed Jul. 24, 1979 (Patent No. 007 614); and No. 82107174.3, filed Aug. 9, 1982 (Publication No. 072 014)!.\nThe compound of the present invention may, where DHP inhibition is desired or necessary, be combined or used with the appropriate DHP inhibitor as described in the aforesaid patents and published application. The cited European Patent Application defines the procedure for determining DHP susceptibility of the present carbapenems and disclose suitable inhibitors, combination compositions and methods of treatment."}, "[1]": {"test": "pH of the solution upon dissolution", "assay_type": "physicochemical", "settings": "monosodium salt of compound I", "source_text": "The compositions of the present invention are generally formulated using a carbon dioxide source. Preferred sources of carbon dioxide are carbon dioxide (gas, liquid or solid), carbonates and bicarbonates, and more preferably sodium carbonate and sodium bicarbonate, which can be incorporated into the formulation, such that an appropriate pH, e.g., about 6.2-8.5, is obtained upon dissolution. The native pH of the monosodium salt of compound I is approximately 5.4.\nOne formulation that is of particular interest is comprised of about 3-6 parts by weight, and preferably about 4.5 parts by weight, of compound I, or the pharmaceutically acceptable salt, stabilized form, prodrug or hydrate thereof, and 1 part by weight of sodium bicarbonate. Preferably the carbapenem is in the form of the monosodium salt. The pH which results upon dissolution of this formulation is approximately 6.5. Formulating the drug in this manner can extend the stability of the product in solution.\nAnother formulation that is of particular interest is comprised of about 4-10 parts by weight, and preferably about 6.7 parts by weight, of the compound of formula I, or the pharmaceutically acceptable salt, stabilized form, prodrug or hydrate thereof, and 1 part by weight sodium carbonate. Preferably the carbapenem is in the form of the monosodium salt. […]"}, "[2]": {"assay_type": "physicochemical", "settings": "25° C.", "description": "The final pH of the solution is shown below. Solution stability of this intravenous formulation was determined at 25° C. with the following results."}}, "note": "Where two headings read alike, the source gives them in different places.", "data": [{"smiles": "CC(O)C1C(=O)N2C(C(=O)O)=C(SC3CNC(C(=O)Nc4cccc(C(=O)O)c4)C3)C(C)C12", "note": "(stereo not shown) [Compound I]", "values": [{"measurement": "susceptibility to attack by dehydropeptidase (DHP)", "setting": "dehydropeptidase (DHP)", "result": "significantly less subject to such attack"}, {"measurement": "native pH", "setting": "[1]", "result": "approximately 5.4"}, {"measurement": "final pH", "setting": "[2]; 12 mg/mL (marked *)", "result": 7.4}, {"measurement": "k", "setting": "[2]; 12 mg/mL (marked *)", "result": 0.004994, "unit": "h⁻¹"}, {"measurement": "t 90%", "setting": "[2]; 12 mg/mL (marked *)", "result": 21.0, "unit": "h"}, {"measurement": "initial pH", "setting": "[2]; 12 mg/mL (marked *), intravenous formulation", "result": 7.0}, {"measurement": "final pH", "setting": "[2]; 36 mg/mL", "result": 7.3}, {"measurement": "k", "setting": "[2]; 36 mg/mL", "result": 0.01044, "unit": "h⁻¹"}, {"measurement": "t 90%", "setting": "[2]; 36 mg/mL", "result": 7.3, "unit": "h"}, {"measurement": "initial pH", "setting": "[2]; 36 mg/mL, intravenous formulation with sodium bicarbonate 8.0 mg/mL, sodium chloride 4.0 mg/mL", "result": 6.7}]}]}
